The test system of the experiment is BDF1 mice, L1210 leukemia sc, survival T/C. The experiment in a line: NCI In Vivo Anticancer Drug Screen. Data for tumor model L1210 Leukemia (subcutaneous) in B6D2F1 (BDF1) mice. The conditions noted are these: endpoint: median survival time, higher = longer survival. Summed up: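 Read-out: T/C ratio, i.e. survival or tumor size in treated mice over that in vehicle-treated controls, from mice bearing transplantable tumors.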

The mark [1] stands for this setting: dose: 23.0 mg/kg/injection, schedule: Q01DX Z (sc), vehicle: carboxymethylcellulose (CMC).
[2] abbreviates: dose: 39.0 mg/kg/injection, schedule: Q01DX Z (sc), vehicle: carboxymethylcellulose (CMC).
The mark [3] stands for this setting: dose: 65.0 mg/kg/injection, schedule: Q01DX Z (sc), vehicle: carboxymethylcellulose (CMC).
Setting [4] is: dose: 108.0 mg/kg/injection, schedule: Q01DX Z (sc), vehicle: carboxymethylcellulose (CMC).

“And” between values parts separate entries of the source, which are not always exact repeats. Equal entries are not always repeated. Toxic doses and inconclusive results are not listed.

On to `C[n+]1ccc(Nc2ccc(NC(=O)c3ccc(Nc4cc[n+](C)c5ccc(N)cc45)cc3N)cc2)cc1`, for which the T/C is 111 % of control (dose: 0.5 mg/kg/injection, schedule: Q03HX024 (ip), vehicle: water); 116 % of control (dose: 1.0 mg/kg/injection, schedule: Q01DX009 (ip), vehicle: water); 155 % of control (dose: 2.0 mg/kg/injection, schedule: Q01DX009 (ip), vehicle: water); 110 % of control (dose: 2.0 mg/kg/injection, schedule: Q01DX009 (sc), vehicle: water); 183 % of control (dose: 2.0 mg/kg/injection, schedule: Q03HX024 (ip), vehicle: water); 233 % of control (dose: 4.0 mg/kg/injection, schedule: Q01DX009 (ip), vehicle: water). For the same compound, the T/C is 170 % of control (dose: 4.0 mg/kg/injection, schedule: Q01DX009 (sc), vehicle: water); 120 % of control (dose: 4.0 mg/kg/injection, schedule: Q03HX008 (sc), vehicle: water); 288 % of control (dose: 4.0 mg/kg/injection, schedule: Q03HX024 (ip), vehicle: water); 165 % of control (dose: 4.0 mg/kg/injection, schedule: Q03HX024 (sc), vehicle: water); 194 % of control (dose: 8.0 mg/kg/injection, schedule: Q01DX009 (ip), vehicle: water); 225 % of control (dose: 8.0 mg/kg/injection, schedule: Q01DX009 (sc), vehicle: water). In addition, the T/C is, setting by setting: (dose: 8.0 mg/kg/injection, schedule: Q03HX024 (ip), vehicle: water) 188 % of control; (dose: 8.0 mg/kg/injection, schedule: Q03HX024 (sc), vehicle: water) 220 % of control; (dose: 8.0 mg/kg/injection, schedule: Q04DX003 (sc), vehicle: water) 100 % of control; (dose: 16.0 mg/kg/injection, schedule: Q01DX001 (sc), vehicle: water) 110 % of control; (dose: 16.0 mg/kg/injection, schedule: Q01DX009 (ip), vehicle: water) 177 % of control; (dose: 16.0 mg/kg/injection, schedule: Q01DX009 (sc), vehicle: water) 270 % of control. Moreover, the T/C (dose: 16.0 mg/kg/injection, schedule: Q03HX008 (sc), vehicle: water) was 235 % of control; the T/C (dose: 16.0 mg/kg/injection, schedule: Q03HX024 (sc), vehicle: water) was 155 % of control; the T/C (dose: 32.0 mg/kg/injection, schedule: Q01DX009 (sc), vehicle: water) is 180 % of control; the T/C (dose: 32.0 mg/kg/injection, schedule: Q03HX008 (sc), vehicle: water) is 210 % of control; the T/C (dose: 32.0 mg/kg/injection, schedule: Q03HX024 (sc), vehicle: water) is 100 % of control; the T/C (dose: 32.0 mg/kg/injection, schedule: Q04DX003 (sc), vehicle: water) was 205 % of control. Moreover, the T/C was 215 % of control (dose: 64.0 mg/kg/injection, schedule: Q01DX001 (sc), vehicle: water); 260 % of control (dose: 64.0 mg/kg/injection, schedule: Q04DX003 (sc), vehicle: water); 240 % of control (dose: 128.0 mg/kg/injection, schedule: Q01DX001 (sc), vehicle: water); 245 % of control (dose: 128.0 mg/kg/injection, schedule: Q04DX003 (sc), vehicle: water).

Regarding `CN(C)CCNc1ccc([N+](=O)[O-])c2sc3ccccc3c(=O)c12`, the T/C (dose: 14.0 mg/kg/injection, schedule: Q01DX Z (sc), vehicle: carboxymethylcellulose (CMC)) is 100 % of control; the T/C under setting [1] is 100 % of control; the T/C under setting [2] was 100 % of control; the T/C under setting [3] is 100 % of control and 111 % of control; the T/C under setting [4] is 100 % of control; the T/C (dose: 180.0 mg/kg/injection, schedule: Q01DX Z (sc), vehicle: carboxymethylcellulose (CMC)) was 111 % of control. The T/C (dose: 300.0 mg/kg/injection, schedule: Q01DX Z (sc), vehicle: carboxymethylcellulose (CMC)) is 105 % of control.

With `CC(=O)[C@@]1(O)CC[C@H]2[C@@H]3C[C@H](C)C4=CC(=O)C=C[C@]4(C)[C@@]3(F)[C@@H](O)C[C@@]21C`, the T/C runs as follows: (dose: 39.0 mg/kg/injection, schedule: Q01DX Z (sc), vehicle: methylcellulose (MC)) 111 % of control; (dose: 65.0 mg/kg/injection, schedule: Q01DX Z (sc), vehicle: methylcellulose (MC)) 105 % of control; (dose: 108.0 mg/kg/injection, schedule: Q01DX Z (sc), vehicle: methylcellulose (MC)) 111 % of control; (dose: 180.0 mg/kg/injection, schedule: Q01DX Z (sc), vehicle: methylcellulose (MC)) 111 % of control; (dose: 300.0 mg/kg/injection, schedule: Q01DX Z (sc), vehicle: methylcellulose (MC)) 111 % of control; (dose: 500.0 mg/kg/injection, schedule: Q01DX Z (sc), vehicle: methylcellulose (MC)) 100 % of control.

For `O=C(O)c1ccc([N+](=O)[O-])cc1`, the T/C (dose: 23.0 mg/kg/injection, schedule: Q01DX Z (sc), vehicle: methylcellulose (MC)) was 104 % of control.

For `N=C(N)SCc1c2ccccc2c(CSC(=N)N)c2ccccc12`, the T/C (dose: 25.0 mg/kg/injection, schedule: Q01DX009 (ip), vehicle: steriod suspending solution) was 110 % of control; the T/C (dose: 50.0 mg/kg/injection, schedule: Q01DX009 (ip), vehicle: steriod suspending solution) was 110 % of control; the T/C (dose: 50.0 mg/kg/injection, schedule: Q01DX009 (sc), vehicle: steriod suspending solution) is 120 % of control; the T/C (dose: 50.0 mg/kg/injection, schedule: Q04DX003 (ip), vehicle: steriod suspending solution) was 100 % of control; the T/C (dose: 62.5 mg/kg/injection, schedule: Q01DX001 (ip), vehicle: steriod suspending solution) is 100 % of control; the T/C (dose: 100.0 mg/kg/injection, schedule: Q04DX003 (ip), vehicle: steriod suspending solution) was 110 % of control. Further, the T/C was 100 % of control (dose: 100.0 mg/kg/injection, schedule: Q04DX003 (sc), vehicle: steriod suspending solution); 110 % of control (dose: 125.0 mg/kg/injection, schedule: Q01DX001 (ip), vehicle: steriod suspending solution); 110 % of control (dose: 125.0 mg/kg/injection, schedule: Q01DX001 (sc), vehicle: steriod suspending solution); 120 % of control (dose: 200.0 mg/kg/injection, schedule: Q01DX009 (sc), vehicle: steriod suspending solution); 105 % of control (dose: 200.0 mg/kg/injection, schedule: Q04DX003 (sc), vehicle: steriod suspending solution); 110 % of control (dose: 250.0 mg/kg/injection, schedule: Q01DX001 (ip), vehicle: steriod suspending solution). Also, the T/C is, setting by setting: (dose: 400.0 mg/kg/injection, schedule: Q01DX009 (sc), vehicle: steriod suspending solution) 110 % of control; (dose: 400.0 mg/kg/injection, schedule: Q04DX003 (sc), vehicle: steriod suspending solution) 110 % of control; (dose: 500.0 mg/kg/injection, schedule: Q01DX001 (sc), vehicle: steriod suspending solution) 105 % of control; (dose: 800.0 mg/kg/injection, schedule: Q01DX009 (sc), vehicle: steriod suspending solution) 110 % of control; (dose: 800.0 mg/kg/injection, schedule: Q04DX003 (sc), vehicle: steriod suspending solution) 100 % of control; (dose: 1000.0 mg/kg/injection, schedule: Q01DX001 (sc), vehicle: steriod suspending solution) 110 % of control. In addition, the T/C (dose: 2000.0 mg/kg/injection, schedule: Q01DX001 (sc), vehicle: steriod suspending solution) was 100 % of control.

Turning to `Cc1cccc(C)c1NC(=O)N(CCCl)N=O`, the T/C is 106 % of control (dose: 8.4 mg/kg/injection, schedule: Q01DX Z (sc), vehicle: carboxymethylcellulose (CMC)); 181 % of control under setting [1]; 287 % of control under setting [2]; 337 % of control under setting [3]; 162 % of control under setting [4].

With `CN(O)C(N)=O`, under “dose: 360.0 mg/kg/injection, schedule: Q01DX Z (sc), vehicle: saline”, the T/C is 150 % of control.

The values are drawn from PubChem BioAssay AID250 (DTP/NCI, 2004).
